How the values were obtained:
Format in all cases: cell-based
Staph Russell = assay: standard MIC test, compound alone and in combination with ampicillin
Proteus C889 = assay: as above
[1] = tested on: 7 cephalosporinase - producing E. coli strains; assay: standard MIC test, cephaloridine with synergist; conditions: Escherichia coli, read-out: Geometric Mean (MIC)
Description: A composition of sodium 6β-methanesulphonyloxypenicillanate and cephaloridine against 7 cephalosporinase - producing E. coli strains results in the following MIC's in a standard test.

[2] = substance alone (the 1st table)
[3] = substance alone (the 2nd table)

Row | SMILES | MIC (Staph Russell; [2]) | MIC (Proteus C889; [2]) | MIC (Staph Russell; [3]) | MIC (Proteus C889; [3]) | MIC [1]
1 | CC1(C)S[C@@H]2[C@H](OS(C)(=O)=O)C(=O)N2[C@H]1C(=O)O [Sodium 6β-methanesulphonyloxypenicillanate] | 4 µg/mL | 62.5 µg/mL | – | – | –
2 | CC1(C)S[C@@H]2[C@H](NC(=O)[C@H](N)c3ccccc3)C(=O)N2[C@H]1C(=O)O [Ampicillin] | 62.5 µg/mL | 1000 µg/mL | 250 µg/mL | > 2000 µg/mL | –
3 | CC1(C)S[C@@H]2[C@H](OS(=O)(=O)c3ccc(Br)cc3)C(=O)N2[C@H]1C(=O)O [Calcium 6β-p-bromobenzenzsulphonyloxypenicillanate] | – | – | 16 µg/mL | > 500 µg/mL | –
4 | O=C(Cc1cccs1)N[C@@H]1C(=O)N2C(C(=O)[O-])=C(C[n+]3ccccc3)CS[C@H]12 [Cephaloridine] | – | – | – | – | 152 µg/mL
